Measurements reported in US4443436A, “C-20-Modified macrolide derivatives of the macrolide antibiotics tylosin, desmycosin, macrocin, and lactenocin” (Eli Lilly and Company, priority 1982, dated 1984).
In brackets after ≈: the same amount, converted by molar mass. Read-outs that look alike come from different tables or passages of the source.

Tests used:
Type in all cases: cell-based
[1] = test system: Staphylococcus aureus X1.1; test: MIC, standard agar-dilution assay, Staphylococcus aureus X1.1
[2] = test system: Staphylococcus aureus V41; test: MIC, standard agar-dilution assay, Staphylococcus aureus V41
[3] = test system: Staphylococcus aureus X400; test: MIC, standard agar-dilution assay, Staphylococcus aureus X400
[4] = test system: Staphylococcus aureus S13E; test: MIC, standard agar-dilution assay, Staphylococcus aureus S13E
[5] = test system: Staphylococcus epidermidis EPI1; test: MIC, standard agar-dilution assay, Staphylococcus epidermidis EPI1
[6] = test system: Staphylococcus epidermidis EPI2; test: MIC, standard agar-dilution assay, Staphylococcus epidermidis EPI2
[7] = test system: Streptococcus pyogenes C203; test: MIC, standard agar-dilution assay, Streptococcus pyogenes C203
[8] = test system: Streptococcus pneumoniae Park I; test: microbe, parasite or virus in culture
[9] = test system: Streptococcus Group D X66; test: MIC, standard agar-dilution assay, Streptococcus Group D X66; conditions: Streptococcus Group D X66, agar dilution
Streptococcus Group 9960 = test: MIC, standard agar-dilution assay, Streptococcus Group 9960; conditions: Streptococcus Group 9960, agar dilution
[10] = test system: Haemophilus influenzae Holt; test: MIC, standard agar-dilution assay, Haemophilus influenzae Holt
[11] = test system: Haemophilus influenzae R252; test: MIC, standard agar-dilution assay, Haemophilus influenzae R252
Staphylococcus aureus = test: MIC, broth-dilution microtiter test, Staphylococcus aureus
Excerpt: (§1) The MIC's in Table X were obtained using conventional broth-dilution microtiter tests.

Streptococcus bovis 80 = test: MIC, broth-dilution microtiter test, Streptococcus bovis 80; conditions: Streptococcus equinus
Excerpt: as §1

[12] = test system: Pasteurella multocida 17E; test: MIC, broth-dilution microtiter test, Pasteurella multocida 17E
Excerpt: as §1

[13] = test system: Pasteurella multocida 60A; test: MIC, broth-dilution microtiter test, Pasteurella multocida 60A; conditions: Pasteurella multocida 60A; avian isolate; broth-dilution microtiter; read-out: MIC
Excerpt: as §1

[14] = test system: Pasteurella hemolytica 22C; test: MIC, broth-dilution microtiter test, Pasteurella hemolytica 22C; conditions: Pasteurella hemolytica 22C; broth-dilution microtiter; read-out: MIC
Excerpt: as §1

Mycoplasma gallisepticum = test: MIC, broth-dilution microtiter test, Mycoplasma gallisepticum; conditions: Mycoplasmoides gallisepticum
Excerpt: as §1

Mycoplasma hyorhinis = test: MIC, broth-dilution microtiter test, Mycoplasma hyorhinis
Excerpt: as §1

[15] = Staphylococcus epidermidis, EPI1
[16] = Staphylococcus epidermidis, EPI2

| SMILES | MIC ([1]; Staphylococcus aureus, X1.1) | MIC ([2]; Staphylococcus aureus, V41) | MIC ([3]; Staphylococcus aureus, X400) | MIC ([4]; Staphylococcus aureus, S13E) | MIC [5, 15] | MIC [6, 16] | MIC ([7]; Streptococcus pyogenes, C203) | MIC ([8]; Streptococcus pneumoniae) | MIC ([9]; read-out: MIC) | MIC (Streptococcus Group 9960; GROUP9960, read-out: MIC) | MIC ([10]; Haemophilus influenzae) | MIC ([11]; Haemophilus influenzae, R252) | MIC (Staphylococcus aureus) | MIC [13] | MIC [14] | MIC (Mycoplasma gallisepticum) | other results |
| --- | --- | --- | --- | --- | --- | --- | --- | --- | --- | --- | --- | --- | --- | --- | --- | --- | --- |
| CCC1OC(=O)CC(O)C(C)C(OC2OC(C)C(OC3CC(C)(O)C(O)C(C)O3)C(N(C)C)C2O)C(CCNC(=O)Cc2ccccc2)CC(C)C(=O)C=CC(C)=CC1COC1OC(C)C(O)C(OC)C1OC (stereo not shown) [Compound 3, 20-DH-DO-20-[N-(Phenylacetyl)amino]tylosin] | 1 µg/mL (≈ 0.966 µM) | 1 µg/mL (≈ 0.966 µM) | 2 µg/mL (≈ 1.93 µM) | 0.5 µg/mL (≈ 0.483 µM) | 0.5 µg/mL (≈ 0.483 µM) | 0.5 µg/mL (≈ 0.483 µM) | 2 µg/mL (≈ 1.93 µM) | 1 µg/mL (≈ 0.966 µM) | 64 µg/mL (≈ 61.8 µM) | 64 µg/mL (≈ 61.8 µM) | 128 µg/mL (≈ 124 µM) | 64 µg/mL (≈ 61.8 µM) | 1.56 µg/mL (≈ 1.51 µM) | > 50 µg/mL | > 50 µg/mL | 0.78 µg/mL (≈ 0.753 µM) | MIC (Streptococcus bovis 80; Streptococcus bovis 80, broth-dilution microtiter, read-out: MIC): 6.25 µg/mL (≈ 6.04 µM); MIC ([12]; Pasteurella multocida 17E, bovine isolate, broth-dilution microtiter, read-out: MIC): > 50 µg/mL; MIC (Mycoplasma hyorhinis; Mycoplasma): 12.5 µg/mL (≈ 12.1 µM) |
| CCC1OC(=O)CC(O)C(C)C(OC2OC(C)C(OC3CC(C)(O)C(O)C(C)O3)C(N(C)C)C2O)C(CCOC(=O)c2nn(CC)c3cc4c(cc3c2=O)OCO4)CC(C)C(=O)C=CC(C)=CC1COC1OC(C)C(O)C(OC)C1OC (stereo not shown) [Compound 10, 20-DH-20-O-Cinoxacinyltylosin] | 1 µg/mL (≈ 0.86 µM) | 2 µg/mL (≈ 1.72 µM) | 8 µg/mL (≈ 6.88 µM) | 4 µg/mL (≈ 3.44 µM) | 2 µg/mL (≈ 1.72 µM) | 8 µg/mL (≈ 6.88 µM) | 1 µg/mL (≈ 0.86 µM) | 0.5 µg/mL (≈ 0.43 µM) | 8 µg/mL (≈ 6.88 µM) | 8 µg/mL (≈ 6.88 µM) | 128 µg/mL (≈ 110 µM) | 128 µg/mL (≈ 110 µM) | 12.5 µg/mL (≈ 10.8 µM) | > 50 µg/mL | > 50 µg/mL | 0.78 µg/mL (≈ 0.671 µM) | MIC (Streptococcus bovis 80; 80): 3.12 µg/mL (≈ 2.68 µM); MIC ([12]; Pasteurella multocida, 17E): > 50 µg/mL; MIC (Mycoplasma hyorhinis; Mycoplasma hyorhinis, broth-dilution microtiter, read-out: MIC): 25 µg/mL (≈ 21.5 µM) |
| CCC1OC(=O)CC(O)C(C)C(OC2OC(C)C(OC3CC(C)(O)C(O)C(C)O3)C(N(C)C)C2O)C(CCOc2ccc(-c3ccccc3)cc2)CC(C)C(=O)C=CC(C)=CC1COC1OC(C)C(O)C(OC)C1OC (stereo not shown) [Compound 18, 20-DH-20-O-(p-Phenylphenyl)tylosin] | 2 µg/mL (≈ 1.87 µM) | 2 µg/mL (≈ 1.87 µM) | 2 µg/mL (≈ 1.87 µM) | 2 µg/mL (≈ 1.87 µM) | 2 µg/mL (≈ 1.87 µM) | – | – | – | 8 µg/mL (≈ 7.47 µM) | > 128 µg/mL | – | – | – | – | – | – | MIC ([6]; Staphylococcus epidermidis EPI2, agar dilution, read-out: MIC): 0.5 µg/mL (≈ 0.467 µM); MIC ([7]; Streptococcus pyogenes C203, agar dilution, read-out: MIC): 2 µg/mL (≈ 1.87 µM); MIC ([8]; Streptococcus pneumoniae Park I, agar dilution, read-out: MIC): 1 µg/mL (≈ 0.934 µM); MIC ([10]; Haemophilus influenzae Holt, ampicillin-sensitive strain, read-out: MIC): > 128 µg/mL; MIC ([11]; Haemophilus influenzae R252, ampicillin-resistant strain, read-out: MIC): > 128 µg/mL |
| CC(=O)O.CC(=O)O.CCC1OC(=O)CC(O)C(C)C(OC2OC(C)C(O)C(N(C)C)C2O)C(CCN)CC(C)C(=O)C=CC(C)=CC1COC1OC(C)C(O)C(OC)C1OC (stereo not shown) [Compound 51b, 20-DH-DO-20-Aminodesmycosin diacetate] | – | – | – | – | – | – | – | – | – | – | – | – | – | – | – | – | MIC ([1]; Staphylococcus aureus X1.1, agar dilution): 4 µg/mL; MIC ([2]; Staphylococcus aureus V41, penicillin-resistant strain, agar dilution): 4 µg/mL; MIC ([3]; Staphylococcus aureus X400, methicillin-resistant strain, agar dilution): 8 µg/mL; MIC ([4]; Staphylococcus aureus S13E, agar dilution): 4 µg/mL; MIC ([5]; Staphylococcus epidermidis EPI1, agar dilution): 8 µg/mL; MIC ([6]; Staphylococcus epidermidis EPI2, agar dilution): 2 µg/mL; MIC ([8]; Streptococcus pneumoniae Park I, agar dilution): 16 µg/mL; MIC [9]: 128 µg/mL; MIC (Streptococcus Group 9960): 128 µg/mL; MIC ([10]; Haemophilus influenzae Holt, ampicillin-sensitive strain, agar dilution): 128 µg/mL; MIC ([11]; Haemophilus influenzae R252, ampicillin-resistant strain, agar dilution): -- (Not active at 128 mcg/ml, the highest level tested) |
